Target: T1, E-selectin (Homo sapiens, UniProt P16581)
T1 sequence (P16581 whole entry): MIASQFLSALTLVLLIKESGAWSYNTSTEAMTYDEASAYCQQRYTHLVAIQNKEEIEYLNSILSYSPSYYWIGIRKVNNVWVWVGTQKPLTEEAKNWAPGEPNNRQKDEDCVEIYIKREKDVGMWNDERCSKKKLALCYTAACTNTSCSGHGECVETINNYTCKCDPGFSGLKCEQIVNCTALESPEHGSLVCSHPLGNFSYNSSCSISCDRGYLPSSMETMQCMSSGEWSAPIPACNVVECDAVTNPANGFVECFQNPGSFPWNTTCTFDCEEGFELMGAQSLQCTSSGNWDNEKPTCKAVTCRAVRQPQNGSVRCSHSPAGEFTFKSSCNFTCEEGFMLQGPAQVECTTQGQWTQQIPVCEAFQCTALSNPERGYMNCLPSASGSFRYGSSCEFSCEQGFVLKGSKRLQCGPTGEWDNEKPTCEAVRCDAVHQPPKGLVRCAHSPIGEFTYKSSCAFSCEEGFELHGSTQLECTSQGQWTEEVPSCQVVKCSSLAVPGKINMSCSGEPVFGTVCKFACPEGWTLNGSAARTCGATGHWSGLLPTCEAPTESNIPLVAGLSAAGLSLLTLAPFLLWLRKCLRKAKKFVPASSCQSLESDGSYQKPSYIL
Test: Inhibitory activity against Selectin E

IC50: < 1 mM
Compound: CC(=O)N[C@H]1[C@H]([C@H](O)[C@H](O)CO)O[C@@](O[C@H]2[C@@H](O)[C@@H](CO)O[C@@H](O[C@@H]([C@H](O[C@@H]3O[C@@H](C)[C@@H](O)[C@@H](O)[C@@H]3O)[C@H](C=O)NC(C)=O)[C@H](O)CO)[C@@H]2O)(C(=O)O)C[C@@H]1O [SIALYL LEWIS X]
